# Several values for one entry are separate records, joined by “and”; a condition that tells them apart may be missing. Identical values can stand only once. Like-named read-outs stand apart in the source and are kept apart here.
# How the values were obtained:
# PLpro from SARS-CoV-2 = PLpro from SARS-CoV-2 (Severe acute respiratory syndrome coronavirus 2, UniProt P0DTD1); test: biochemical; format: biochemical; parameters: mean (kobs plot, Supplementary Figure 6 II): unit: min^-1
# PLpro = PLpro (Severe acute respiratory syndrome coronavirus 2, UniProt P0DTD1); test: Intact protein ESI-MS to assess covalent adduct formation; format: binding, SARS-CoV-2; parameters: unit not given here
# SARS-CoV-2 PLpro [1] = target: T1, SARS-CoV-2 PLpro (Severe acute respiratory syndrome coronavirus 2, UniProt P0DTD1); test: biochemical; details: PLpro 50 nM, Ub-rhodamine110
# SARS-CoV-2 PLpro [2] = target: T1, SARS-CoV-2 PLpro; test: biochemical; details: PLpro 10 nM, ISG15-CHOP2
# USP30 = target: T2, USP30 (Homo sapiens, UniProt Q70CQ3); test: biochemical; details: USP30 10 nM, Ub-rhodamine110
# T2 construct: purchased LifeSensors, Inc. (Malvern, PA)
# T2 sequence (Q70CQ3 whole entry): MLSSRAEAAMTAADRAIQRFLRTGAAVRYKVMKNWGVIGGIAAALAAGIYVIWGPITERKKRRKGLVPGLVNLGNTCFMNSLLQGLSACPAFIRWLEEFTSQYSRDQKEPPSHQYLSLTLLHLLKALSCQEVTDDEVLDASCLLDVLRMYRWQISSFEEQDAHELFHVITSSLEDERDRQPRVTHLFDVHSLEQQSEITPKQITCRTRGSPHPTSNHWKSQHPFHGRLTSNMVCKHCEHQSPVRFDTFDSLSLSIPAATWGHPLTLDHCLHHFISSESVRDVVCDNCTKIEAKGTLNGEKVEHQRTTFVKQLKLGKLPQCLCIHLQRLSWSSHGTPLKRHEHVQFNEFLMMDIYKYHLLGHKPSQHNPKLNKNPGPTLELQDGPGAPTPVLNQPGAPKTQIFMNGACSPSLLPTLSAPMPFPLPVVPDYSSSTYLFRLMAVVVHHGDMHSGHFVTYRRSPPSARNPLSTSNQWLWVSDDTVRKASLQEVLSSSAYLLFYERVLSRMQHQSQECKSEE
# USP15 = target: T3, USP15 (Homo sapiens, UniProt Q9Y4E8); test: DUB selectivity assay, USP15 (Ub-rhodamine110); format: biochemical; details: USP15 1 nM, Ub-rhodamine110; read-out: IC50
# T3 construct: purchased LifeSensors, Inc. (Malvern, PA)
# T3 sequence (Q9Y4E8 1-981): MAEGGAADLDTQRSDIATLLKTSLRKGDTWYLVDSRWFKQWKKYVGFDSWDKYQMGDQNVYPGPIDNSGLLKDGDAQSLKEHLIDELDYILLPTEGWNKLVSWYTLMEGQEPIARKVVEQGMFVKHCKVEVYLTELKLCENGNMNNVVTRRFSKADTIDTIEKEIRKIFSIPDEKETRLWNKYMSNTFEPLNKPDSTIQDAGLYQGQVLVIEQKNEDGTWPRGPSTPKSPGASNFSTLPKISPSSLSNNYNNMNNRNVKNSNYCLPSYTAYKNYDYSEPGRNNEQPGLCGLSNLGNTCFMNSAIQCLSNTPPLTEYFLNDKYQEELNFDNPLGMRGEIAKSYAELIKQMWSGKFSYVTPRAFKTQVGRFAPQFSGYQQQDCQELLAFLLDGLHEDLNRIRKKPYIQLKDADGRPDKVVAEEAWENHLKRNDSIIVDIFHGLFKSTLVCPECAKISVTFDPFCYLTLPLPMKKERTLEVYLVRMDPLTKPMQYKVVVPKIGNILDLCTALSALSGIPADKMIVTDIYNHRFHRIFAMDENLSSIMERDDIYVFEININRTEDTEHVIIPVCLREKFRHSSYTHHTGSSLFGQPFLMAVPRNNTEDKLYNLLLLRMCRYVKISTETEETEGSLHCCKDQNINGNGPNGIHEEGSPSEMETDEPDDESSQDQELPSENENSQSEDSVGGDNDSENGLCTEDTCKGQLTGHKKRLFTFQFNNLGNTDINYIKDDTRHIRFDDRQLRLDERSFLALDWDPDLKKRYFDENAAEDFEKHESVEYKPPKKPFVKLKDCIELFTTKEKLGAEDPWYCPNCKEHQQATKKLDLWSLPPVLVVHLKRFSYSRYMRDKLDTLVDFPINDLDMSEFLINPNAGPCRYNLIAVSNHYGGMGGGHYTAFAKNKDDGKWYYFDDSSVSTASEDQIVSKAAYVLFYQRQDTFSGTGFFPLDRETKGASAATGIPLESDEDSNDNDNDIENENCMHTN
# USP8 = target: T4, USP8 (Homo sapiens, UniProt P40818); test: biochemical; details: USP8 10 nM, Ub-rhodamine110
# T4 construct: USP2c, USP4, USP7, USP8c, USP15, USP30WT, and UCH-L1; purchased LifeSensors, Inc. (Malvern, PA)
# T4 sequence (P40818 777-1109): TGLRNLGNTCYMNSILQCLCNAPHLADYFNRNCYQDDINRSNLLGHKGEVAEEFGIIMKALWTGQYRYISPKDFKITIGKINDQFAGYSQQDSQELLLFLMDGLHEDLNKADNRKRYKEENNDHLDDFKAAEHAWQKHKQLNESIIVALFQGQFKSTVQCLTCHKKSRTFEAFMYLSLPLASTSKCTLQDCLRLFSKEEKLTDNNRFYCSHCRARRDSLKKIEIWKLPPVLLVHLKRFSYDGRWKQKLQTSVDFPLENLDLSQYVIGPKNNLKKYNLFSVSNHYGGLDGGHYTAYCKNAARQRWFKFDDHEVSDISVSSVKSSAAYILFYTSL
# USP7 = target: T5, USP7 (Homo sapiens, UniProt Q93009); test: biochemical; details: USP7 5 nM, Ub-CHOP2
# T5 construct: purchased LifeSensors, Inc. (Malvern, PA)
# T5 sequence (Q93009 whole entry): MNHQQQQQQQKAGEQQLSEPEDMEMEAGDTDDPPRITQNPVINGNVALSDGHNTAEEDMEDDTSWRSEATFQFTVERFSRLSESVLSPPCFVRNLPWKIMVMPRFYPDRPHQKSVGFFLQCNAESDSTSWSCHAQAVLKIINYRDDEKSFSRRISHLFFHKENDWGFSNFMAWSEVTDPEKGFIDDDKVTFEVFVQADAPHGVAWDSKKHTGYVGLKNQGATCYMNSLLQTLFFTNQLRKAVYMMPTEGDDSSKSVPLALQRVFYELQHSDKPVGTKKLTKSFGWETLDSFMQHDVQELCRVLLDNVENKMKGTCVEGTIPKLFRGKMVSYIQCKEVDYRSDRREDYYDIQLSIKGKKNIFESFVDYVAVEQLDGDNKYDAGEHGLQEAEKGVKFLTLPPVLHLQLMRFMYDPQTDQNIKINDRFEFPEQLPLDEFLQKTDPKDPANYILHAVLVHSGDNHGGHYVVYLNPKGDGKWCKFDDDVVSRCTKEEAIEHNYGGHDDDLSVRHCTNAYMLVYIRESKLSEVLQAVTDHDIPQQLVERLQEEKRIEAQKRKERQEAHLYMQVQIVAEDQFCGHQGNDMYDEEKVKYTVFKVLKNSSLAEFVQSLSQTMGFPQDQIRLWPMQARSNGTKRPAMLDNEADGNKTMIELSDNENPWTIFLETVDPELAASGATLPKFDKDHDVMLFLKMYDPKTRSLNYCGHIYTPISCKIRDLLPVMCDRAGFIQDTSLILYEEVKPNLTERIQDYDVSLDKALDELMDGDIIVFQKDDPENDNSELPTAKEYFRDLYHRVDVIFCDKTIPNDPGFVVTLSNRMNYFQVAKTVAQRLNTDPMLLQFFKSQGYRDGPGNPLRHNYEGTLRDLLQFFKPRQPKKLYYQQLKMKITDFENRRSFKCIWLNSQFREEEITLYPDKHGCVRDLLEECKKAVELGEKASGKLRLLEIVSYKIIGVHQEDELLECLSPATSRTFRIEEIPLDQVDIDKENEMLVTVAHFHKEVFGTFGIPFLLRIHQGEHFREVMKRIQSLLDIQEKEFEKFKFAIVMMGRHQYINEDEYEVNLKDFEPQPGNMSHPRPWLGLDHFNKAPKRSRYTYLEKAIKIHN
# USP2 = target: T6, USP2 (Homo sapiens, UniProt O75604); test: biochemical; details: USP2 10 nM, Ub-rhodamine110
# T6 construct: USP2c, USP4, USP7, USP8c, USP15, USP30WT, and UCH-L1; purchased LifeSensors, Inc. (Malvern, PA)
# T6 sequence (O75604 267-599): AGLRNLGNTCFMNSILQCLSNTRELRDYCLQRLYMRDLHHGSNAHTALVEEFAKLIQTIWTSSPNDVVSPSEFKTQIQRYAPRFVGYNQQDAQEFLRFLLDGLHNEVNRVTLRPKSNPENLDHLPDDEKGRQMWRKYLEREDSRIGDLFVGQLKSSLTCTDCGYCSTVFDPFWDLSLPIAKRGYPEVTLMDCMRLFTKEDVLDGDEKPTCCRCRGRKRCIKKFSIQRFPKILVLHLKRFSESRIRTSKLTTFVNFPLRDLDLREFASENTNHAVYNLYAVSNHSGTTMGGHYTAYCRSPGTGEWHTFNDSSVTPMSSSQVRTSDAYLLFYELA
# [3] = test system: SARS-CoV-2 isolate USA-WA1/2020; test: microbe, parasite or virus in culture
# [4] = Metabolic stability in rat liver S9 fraction; details: Sprague-Dawley
smiles,measurement,setting,value
"C[C@@H](NC(=O)c1ccccc1CCC(=O)NNC(=O)CCl)c1cccc2ccccc12 [Compound 9, (R)-2-(3-(2-(2-chloroacetyl)hydrazineyl)-3-oxopropyl)-N-(1-(naphthalen-1-yl)ethyl)benzamide]",remaining activity at 4 µM,"PLpro from SARS-CoV-2; […], read-out: PLpro activity after preincubation, inhibitor 4 uM, preincubation 45 min",30.6%
same,remaining activity at 4 µM,"PLpro from SARS-CoV-2; […], read-out: PLpro activity after preincubation, inhibitor 4 uM, preincubation 90 min",18.5%
same,remaining activity at 5 µM,"PLpro from SARS-CoV-2; […], read-out: PLpro activity after preincubation, inhibitor 5 uM, preincubation 15 min",57.4%
same,remaining activity at 5 µM,"PLpro from SARS-CoV-2; […], read-out: PLpro activity after preincubation, inhibitor 5 uM, preincubation 45 min",20.3%
same,remaining activity at 5 µM,"PLpro from SARS-CoV-2; […], read-out: PLpro activity after preincubation, inhibitor 5 uM, preincubation 90 min",9.23%
same,remaining activity at 8 µM,"PLpro from SARS-CoV-2; […], read-out: PLpro activity after preincubation, inhibitor 8 uM, preincubation 45 min",12.3%
same,remaining activity at 10 µM,"PLpro from SARS-CoV-2; […], read-out: PLpro activity after preincubation, inhibitor 10 uM, preincubation 15 min",49.7%
same,remaining activity at 10 µM,"PLpro from SARS-CoV-2; […], read-out: PLpro activity after preincubation, inhibitor 10 uM, preincubation 45 min",14.1%
same,remaining activity at 15 µM,"PLpro from SARS-CoV-2; […], read-out: PLpro activity after preincubation, inhibitor 15 uM, preincubation 15 min",40.2%
same,remaining activity at 15 µM,"PLpro from SARS-CoV-2; […], read-out: PLpro activity after preincubation, inhibitor 15 uM, preincubation 45 min",10.8%
same,remaining activity at 15 µM,"PLpro from SARS-CoV-2; […], read-out: PLpro activity after preincubation, inhibitor 15 uM, preincubation 90 min",12.6%
same,remaining activity at 25 µM,"PLpro from SARS-CoV-2; […], read-out: PLpro activity after preincubation, inhibitor 25 uM, preincubation 15 min",17.8%
same,remaining activity at 25 µM,"PLpro from SARS-CoV-2; […], read-out: PLpro activity after preincubation, inhibitor 25 uM, preincubation 90 min",10.7%
same,remaining activity at 30 µM,"PLpro from SARS-CoV-2; […], read-out: PLpro activity after preincubation, inhibitor 30 uM, preincubation 15 min",29.9%
same,remaining activity at 30 µM,"PLpro from SARS-CoV-2; […], read-out: PLpro activity after preincubation, inhibitor 30 uM, preincubation 45 min",6.98%
same,remaining activity at 36 µM,"PLpro from SARS-CoV-2; […], read-out: PLpro activity after preincubation, inhibitor 36 uM, preincubation 15 min",18%
same,remaining activity at 36 µM,"PLpro from SARS-CoV-2; […], read-out: PLpro activity after preincubation, inhibitor 36 uM, preincubation 45 min",6.34%
same,Time dep. (time-dependent inhibition),"PLpro from SARS-CoV-2; fluorogenic peptide assay, varied preincubation time",Yes
same,"mean (kobs plot, Supplementary Figure 6 II)",PLpro from SARS-CoV-2; inhibitor 1 uM,0.0070
same,"mean (kobs plot, Supplementary Figure 6 II)",PLpro from SARS-CoV-2; inhibitor 2 uM,0.0147
same,"mean (kobs plot, Supplementary Figure 6 II)",PLpro from SARS-CoV-2; inhibitor 4 uM,0.0210
same,"mean (kobs plot, Supplementary Figure 6 II)",PLpro from SARS-CoV-2; inhibitor 5 uM,0.0344
same,"mean (kobs plot, Supplementary Figure 6 II)",PLpro from SARS-CoV-2; inhibitor 8 uM,0.0503
same,"mean (kobs plot, Supplementary Figure 6 II)",PLpro from SARS-CoV-2; inhibitor 10 uM,0.0558
same,"mean (kobs plot, Supplementary Figure 6 II)",PLpro from SARS-CoV-2; inhibitor 13 uM,0.0770
same,"mean (kobs plot, Supplementary Figure 6 II)",PLpro from SARS-CoV-2; inhibitor 15 uM,0.0658
same,"mean (kobs plot, Supplementary Figure 6 II)",PLpro from SARS-CoV-2; inhibitor 25 uM,0.0896
same,"mean (kobs plot, Supplementary Figure 6 II)",PLpro from SARS-CoV-2; inhibitor 30 uM,0.0802
same,"mean (kobs plot, Supplementary Figure 6 II)",PLpro from SARS-CoV-2; inhibitor 36 uM,0.0968
same,Measured adduct mass,PLpro,401
same,Hill slope,SARS-CoV-2 PLpro [1],0.705
same,IC50,SARS-CoV-2 PLpro [1],1.96 µM
same,Hill slope,SARS-CoV-2 PLpro [2],0.817
same,IC50,SARS-CoV-2 PLpro [2],20.2 µM
same,IC50,USP30,> 30 µM
same,IC50,USP15,> 30 µM
same,IC50,USP8,> 30 µM
same,IC50,USP7,> 30 µM
same,IC50,USP2,> 30 µM
same,EC50,"[3]; Severe acute respiratory syndrome coronavirus 2, Vero C1008, 48 h, read-out: EC50 (cytopathic effect)",34 µM
same,inhibition at […],"[3]; Severe acute respiratory syndrome coronavirus 2, Vero C1008, read-out: cytopathic effect, % cell viability",17.4% and 13.2%
same,inhibition at 2.08 µM,"[3]; Severe acute respiratory syndrome coronavirus 2, Vero C1008, read-out: cytopathic effect, % cell viability, [inhibitor] 2.08 uM, duplicate wells",10.7%
same,inhibition at 8.33 µM,"[3]; Severe acute respiratory syndrome coronavirus 2, Vero C1008, read-out: cytopathic effect, % cell viability, [inhibitor] 8.33 uM, duplicate wells",26.9%
same,inhibition at 16.65 µM,"[3]; Severe acute respiratory syndrome coronavirus 2, Vero C1008, read-out: cytopathic effect, % cell viability, [inhibitor] 16.65 uM, duplicate wells",19.8%
same,half-life,[4],16 min
same,microsomal CLint,[4],140 µL/min/mg
